# Assay results published in patent US7910575B2, “Prophylactic or therapeutic agents for allergic ophthalmic diseases or allergic nasal diseases, comprising tricyclic triazolobenzazepine derivative” (Meiji Seika Kaisha, Ltd., priority 2006, dated 2011).
# Where “and” joins values, the source holds several entries; their conditions need not be identical. Equal entries are not always repeated. Structures can show the parent of a compound that is named as a salt. Marks after values point to notes of the source that are not given here.
# Columns and labels:
# allergic rhinitis [1] = assay: Prophylactic effect on allergic rhinitis (nasal drops immediately before induction); type: in vivo, rat; conditions: for Increase in dye leakage amount Inhibition ratio: immediately before antigen administration
# Method: Male Sprague Dawley rats (n=6) were prepared. Bordetella pertussis (4×10^10) and 1 mg of dinitrophenylated ovalbumin (hereinafter referred to as “DNP-OA”) were subcutaneously administered into the footpad of the rats. […] After six hr from the antigen administration, Evans Blue (a dye) (50 mg/kg) was intravenously administered.
# After nine hr from the induction of the allergic reaction, the nasal septal mucosa of the rats was harvested, and the weight of the tissue was measured. The tissue of the nasal septal mucosa was lysed with 1 N KOH, and the leakage amount of the dye was determined as an index of vascular permeability in the late phase of the allergic rhinitis.
# In this case, physiological saline was administered instead of the antigen.
# In the table, the inhibition ratio was calculated by the following equation. Inhibition(%)=100×{(B−A)−(C−A)}÷(B−A)
# wherein A represents a negative control group (a nonsensitized group); B represents a control group; and C represents a medicament administered group.
# allergic conjunctivitis [2] = assay: Prophylactic effect on allergic conjunctivitis (instillation before induction, late phase); type: in vivo, rat
# allergic rhinitis [3] = assay: Therapeutic effect on allergic rhinitis (nasal drops one hr after induction); type: in vivo, rat; conditions: for Dye leakage amount increase Inhibition ratio: nasal drops, one hr after administration of the antigen
# Method: In the same manner as in Test Example 4-1, the allergic reaction was induced, and the vascular permeability in the late phase of the allergic rhinitis was measured. In this case, however, for the evaluation of the therapeutic effect, compound A, Amlexanox, and Ketotifen were administered one hr after the induction of the allergic reaction. Since greenie was leaked, the dose was doubled (10 μL) so that the dispersion of the medicament within the nasal cavities is not inhibited, and the concentration of the medicament was regulated with physiological saline to the half of the concentration in the experiment on prophylactic effect to render the dose per individual identical.
# The medicament was administered one hr after the administration of the antigen.
# [4] = Concentration of compound A in the eye tissue after instillation; type: in vivo, rabbit
# Method: A test solution (0.1% or 1%) of compound A in an isotonic borate buffer solution adjusted to pH 7.4 and a test solution (0.1%) of compound B in an isotonic borate buffer solution were provided, and 50 μL of each test solution was administered as ocular instillation to male rabbits.
# The concentration of compound A in the eye tissue after instillation was measured as follows. At the outset, the tissue was removed from the test animals and was cryopreserved. Purified water (0.1 mL) was added to a sufficient quantity of the cryopreserved tissue and the like followed by homogenization. Thereafter, 0.5 mL of 0.1% phosphoric acid, 0.05 mL of an internal standard solution (a predetermined internal standard substance ([…]) described in WO 95/18130), 0.05 mL of acetonitrile, and 0.05 mL of purified water were added thereto. An extraction solvent (25% chloroform/diethyl ether) (8 mL) was added, and the mixture was shaken and centrifuged. Thereafter, 7 mL of the organic layer was evaporated to dryness under the negative pressure, and the residue was dissolved in 0.3 mL of a mobile phase to give an analyte. A liquid prepared by mixing and dissolving 0.55 g of tetraoxyl ammonium bromide into 450 mL of acetonitrile, 450 mL of 10 mM phosphate buffer solution, and 100 mL of methanol was used as the mobile phase. The concentration of compound A was measured by injecting 0.025 mL of the analyte into high-performance liquid chromatography (HPLC) (measurement conditions: fluorescence excitation 270 nm, emission 466 nm).
# The concentration of only compound A in the eye tissue was measured because compound B is a prodrug of compound A.
# [5] = system: epithelial cells of cornea in human eyes; assay: Toxicity against epithelial cells of cornea, 24-hr cell survival rate; type: cell-based
# Text: Specifically, toxicity against epithelial cells of cornea in human eyes was studied.
# allergic conjunctivitis [6] = assay: Therapeutic effect on allergic conjunctivitis (instillation three hr after induction); type: in vivo, rat; conditions: for Tissue weight increase: 5 μL/eye three hr after induction of the allergic reaction; for therapeutic effect on allergic conjunctivitis (in words): instillation three hr after induction
# Method: Compound A, Betamethasone, control group, and negative control group were administered at the same concentration as in Test Example 1-1, and the concentration of Betamethasone was as shown in Table 3. The test was carried out in the same manner as in Test Example 1-1, except that, three hr after the induction of the allergic reaction, for compound A, Betamethasone, control group, and negative control group were administered, the test solution was administered at a dose of 5 μL/eye to the right eye.
# allergic conjunctivitis [7] = assay: Prophylactic effect on allergic conjunctivitis (instillation before induction, late phase); type: in vivo, rat; conditions: for Inhibition ratio Increase in tissue weight: Test Example 1-2, medicament concentration 0.1%, instillation before induction; for Inhibition ratio (%) Increase in tissue weight: 5 μL/eye 15 min before induction; for Inhibition ratio (%) Increase in dye leakage amount: 15 min before induction, Evans Blue
# Method: Male SD rats were prepared. Bordetella pertussis (4×10^10) and 1 mg of dinitrophenylated ovalbumin (hereinafter often abbreviated to “DNP-OA”) were subcutaneously administered into the footpad of the rats. After 8 to 10 days from the administration, a 3% DNP-OA solution was administered to the right eye of the rats to induce an allergic reaction. In some experiments, in order to confirm dye leakage and location of edema, a dye was injected, and, in the anatomy, the coincidence of dye leakage with the location of edema was confirmed. […] After 9 hr from the induction of the allergic reaction, the eyeballs of the rats were harvested. Further, lenses, hydatoids, and the contents of the vitreous body were removed from the eyeballs, and the weight of the tissues was measured. Furthermore, the dye leakage amount in the harvested eye tissue was measured. […] The absorbance (630 nm) of Evans Blue in the supernatant was measured with Multiskan JX (manufactured by Labsystem Ltd.). The amount of the dye was regarded as a dye leakage amount. […] For the control group, 0.15 M sodium hydrogencarbonate adjusted to pH 7.2 was administered. For a negative control group (a nonsensitization group), a 3% DNP-OA solution was administered to the right eye of the nonsensitized rats, and the solvent was used into the same manner as in the control group. The medicament or the solvent was administered to the right eye (5 μL/eye) 15 min before the induction of the allergic reaction. Compound A was administered at concentrations of 0.01%, 0.1%, and 1% for studies of dose response. In the table, the inhibition ratio was calculated by the following equation.
# rabbit eye (conjunctiva) = assay: Severe eye irritation test using rabbits; type: in vivo; conditions: instillation six times per day at 30 min intervals for two days
# [8] = Test Example 4-2, nasal drops at concentrations of Table 9
# [9] = medicament concentration 0.1%, 0.5 μg/rat, 9 hr after induction
# [10] = medicament concentration 1%, 5 μg/rat, 9 hr after induction
compound,measurement,setting,value
"O=C(O)c1cc(=O)c2c(OCC(O)COc3cccc4oc(C(=O)O)cc(=O)c34)cccc2o1 [Cromoglycate, cromoglycate sodium]",Increase in dye leakage amount Inhibition ratio,"allergic rhinitis [1]; Test Example 4-2, nasal drops, 2%, 200 μg/rat",2.9%
same,Inhibition ratio Increase in tissue weight,"allergic conjunctivitis [2]; Test Example 1-2, medicament concentration 2%",14.7%
CC(C)c1ccc2oc3nc(N)c(C(=O)O)cc3c(=O)c2c1 [Amlexanox],prophylactic effect on allergic rhinitis (in words),allergic rhinitis [1]; [8],had prophylactic effect on allergic rhinitis
same,Increase in dye leakage amount Inhibition ratio,"allergic rhinitis [1]; Test Example 4-2, nasal drops, 0.25%, 25 μg/rat",81.1% **
same,Dye leakage amount increase Inhibition ratio,"allergic rhinitis [3]; 0.125%, 25 μg/rat",25.0%
"COc1cc2[nH]c(=O)c3nn[nH]c3c(=O)c2cc1OC [Compound A, 7,8-Dimethoxy-4(5H),10-dioxo-1H-1,2,3-triazolo[4,5-c][1]benzazepine]",maximum eye tissue concentration,[4]; instillation of a 0.1% liquid,1.29 μg/g and 4.7 μM
same,concentration at 0.25 h,"[4]; male, eye tissue, topical, 50 μL of 1% solution, 1% test solution, 50 μL instillation, rabbit, 0.25 hr after instillation, average ± standard error",6090 ± 2200 ng/g
same,concentration at 1 h,"[4]; male, eye tissue, topical, 50 μL of 1% solution, 1% test solution, 50 μL instillation, rabbit, 1 hr after instillation",1150 ± 830 ng/g
same,concentration at 2 h,"[4]; male, eye tissue, topical, 50 μL of 1% solution, 1% test solution, 50 μL instillation, rabbit, 2 hr after instillation",1260 ± 940 ng/g
same,concentration at 4 h,"[4]; male, eye tissue, topical, 50 μL of 1% solution, 1% test solution, 50 μL instillation, rabbit, 4 hr after instillation",1380 ± 540 ng/g
same,concentration at 8 h,"[4]; male, eye tissue, topical, 50 μL of 1% solution, 1% test solution, 50 μL instillation, rabbit, 8 hr after instillation",660 ± 420 ng/g
same,concentration at 24 h,"[4]; male, eye tissue, topical, 50 μL of 1% solution, 1% test solution, 50 μL instillation, rabbit, 24 hr after instillation",60 ± 60 ng/g
same,non-toxic concentration relative to the maximum eye tissue concentration,[5]; 0.3 mM versus 4.7 μM (0.1% liquid instillation),not less than 60 times
same,toxicity against epithelial cells of cornea (24-hr cell survival rate),[5]; concentration range of 100 nM to 0.3 mM,any toxicity was not observed
same,prophylactic effect on allergic rhinitis (in words),"allergic rhinitis [1]; Test Example 4-1, nasal drops 0.01% to 1%",effective against allergic rhinitis dose-dependently
same,prophylactic effect on allergic rhinitis (in words),allergic rhinitis [1]; [8],had prophylactic effect on allergic rhinitis
same,Increase in dye leakage amount Inhibition ratio,"allergic rhinitis [1]; Test Example 4-2, nasal drops, 0.1%, 10 μg/rat",95.7% **
same,Increase in dye leakage amount Inhibition ratio,"allergic rhinitis [1]; nasal drops, 0.01%, 1 μg/rat, nasal septal mucosa 9 hr after induction",52.9% **
same,Increase in dye leakage amount Inhibition ratio,"allergic rhinitis [1]; nasal drops, 0.1%, 10 μg/rat, 9 hr after induction",111.7% **
same,Increase in dye leakage amount Inhibition ratio,"allergic rhinitis [1]; nasal drops, 1%, 100 μg/rat, 9 hr after induction",123.1% **
same,Tissue weight increase,allergic conjunctivitis [6]; 0.01%,70.3% **
same,Tissue weight increase,allergic conjunctivitis [6]; 0.1%,99.9% **
same,Tissue weight increase,allergic conjunctivitis [6]; 1%,103.7% **
same,therapeutic effect on allergic conjunctivitis (in words),allergic conjunctivitis [6],potent therapeutic effect
same,therapeutic effect on allergic rhinitis (in words),allergic rhinitis [3]; nasal drops one hr after antigen,exhibited therapeutic effect on the allergic rhinitis
same,Dye leakage amount increase Inhibition ratio,"allergic rhinitis [3]; 0.05%, 10 μg/rat",93.8% **
same,Inhibition ratio Increase in tissue weight,allergic conjunctivitis [7],99.1% **
same,Inhibition ratio (%) Increase in tissue weight,"allergic conjunctivitis [7]; medicament concentration 0.01%, 0.05 μg/rat, eye harvested 9 hr after induction",67.0% **
same,Inhibition ratio (%) Increase in dye leakage amount,"allergic conjunctivitis [7]; medicament concentration 0.01%, 0.05 μg/rat, 9 hr after induction",74.4% **
same,Inhibition ratio (%) Increase in tissue weight,allergic conjunctivitis [7]; [9],89.0% **
same,Inhibition ratio (%) Increase in dye leakage amount,allergic conjunctivitis [7]; [9],83.9% **
same,Inhibition ratio (%) Increase in tissue weight,allergic conjunctivitis [7]; [10],83.7% **
same,Inhibition ratio (%) Increase in dye leakage amount,allergic conjunctivitis [7]; [10],87.6% **
same,eye irritation,rabbit eye (conjunctiva); 0.5%,irritation was not observed at all
same,eye irritation,rabbit eye (conjunctiva); 3%,only slight reddening of the conjunctiva was observed
"C[C@@H]1CN([C@H]2CC[C@](C#N)(c3ccc(F)cc3)CC2)CC[C@]1(C(=O)O)c1ccccc1 [Levocabastine, levocabastine hydrochloride]",Increase in dye leakage amount Inhibition ratio,"allergic rhinitis [1]; Test Example 4-2, nasal drops, 0.025%, 2.5 μg/rat",22.7%
same,Inhibition ratio Increase in tissue weight,"allergic conjunctivitis [2]; Test Example 1-2, medicament concentration 0.025%",11.1%
"CCC(=O)O[C@]1(C(=O)SCF)[C@H](C)C[C@H]2[C@@H]3C[C@H](F)C4=CC(=O)C=C[C@]4(C)[C@@]3(F)[C@@H](O)C[C@@]21C [Fluticasone, fluticasone propinate]",Increase in dye leakage amount Inhibition ratio,"allergic rhinitis [1]; Test Example 4-2, nasal drops, 0.051%, 5.1 μg/rat",106.0% **
"C[C@H]1C[C@H]2[C@@H]3CCC4=CC(=O)C=C[C@]4(C)[C@@]3(F)[C@@H](O)C[C@]2(C)[C@@]1(O)C(=O)COP(=O)([O-])[O-].[Na+].[Na+] [Betamethazone, betamethazone sodium phosphate, reference compound]",Tissue weight increase,allergic conjunctivitis [6]; 0.1%,74.8% **
same,therapeutic effect on allergic conjunctivitis (in words),allergic conjunctivitis [6],potent therapeutic effect
"CC(=O)[C@@]1(O)CC[C@H]2[C@@H]3C[C@H](C)C4=CC(=O)C=C[C@]4(C)[C@@]3(F)[C@@H](O)C[C@@]21C [Fluorometholone, fluorometholone, reference compound]",Inhibition ratio Increase in tissue weight,allergic conjunctivitis [7],59.4% *
"CN1CCC(=C2c3ccccc3CC(=O)c3sccc32)CC1 [Ketotifen, ketotifen fumarate]",prophylactic effect on allergic rhinitis (in words),allergic rhinitis [1]; [8],had prophylactic effect on allergic rhinitis
same,Increase in dye leakage amount Inhibition ratio,"allergic rhinitis [1]; Test Example 4-2, nasal drops, 0.055%, 5.5 μg/rat",49.4%
same,Dye leakage amount increase Inhibition ratio,"allergic rhinitis [3]; 0.0275%, 5.5 μg/rat",48.6%
same,Inhibition ratio Increase in tissue weight,"allergic conjunctivitis [2]; Test Example 1-2, medicament concentration 0.05%",13.4%
